Test results from patent US20230416205A1, “COMPOUNDS, COMPOSITIONS, AND METHODS” (Denali Therapeutics Inc, priority 2020, published 2023).
Where two headings read alike, the source gives them in different places.

Test system: NLRP3
Assay: IL-1β secretion assay in PMA-differentiated, LPS/nigericin-stimulated THP-1 cells (384-well, ELISA read-out)
Type: cell-based, human
Experimental: Compounds as provided herein were tested in the following assay. Cell culture medium employed contained RPMI 1640 medium (89%), FBS (10%), Pen/Strep (1%), and 2-mercaptoethanol (0.05 mM). Freezing medium was made up of 90% FBS and 10% DMSO. THP-1 cells were removed from the liquid nitrogen and placed into a 37° C. water bath to thaw, until signs of ice dissipated. The cells were then added to 9 mL of warm cell culture medium and centrifuged for 5 minutes at 1000 rpm. The supernatant was discarded, and the cells were resuspended in new cell culture medium. THP-1 cells were then split and cultured in the cell culture medium, being passaged every 2-3 days with the cell density will be maintained between 5×10^5 and 1.5×10^6 viable cells/mL.
To freeze, cells were resuspended with fresh freezing medium, adjusting the cell density to 5×10^6 cells/mL. The cell suspension was partitioned into 1 mL aliquots per vial, and the vials were transferred to a −80° C. freezer. After one day at −80° C., the cell vials were transferred to liquid nitrogen freezer for storage.
PMA was dissolved in DMSO to make a stock solution at 5 mg/mL and stored in 10 μl aliquots at −20° C. for single use. PMA is added to normal growth medium. LPS was diluted with 1 mL of water solution to provide a 1 mg/mL stock solution and stored in 15 μl aliquots at −20° C. for single use. Nigericin is diluted in ice cold 100% ethanol to 5 mg/mL (6.7 mM) and stored in 75 μL aliquots at −20° C. for single use. Serum-free media contains RPMI 1640 medium (99%), Pen/Strep (1%), and 2-mercaptoethanol (0.05 mM). The two control conditions used to qualify and normalize test compound dose-response curves were as follows: High Control=25 ng/mL LPS, 5 μM Nigericin, 0.5% DMSO, Low Control=25 ng/mL, LPS, 0.5% DMSO.
THP-1 cells were diluted to provide a suspension at a concentration of 1.0×10^6 cells/mL with the total volume of suspension required to enable the desired number of assay plates. The growth media was supplemented with PMA (5 ng/mL final concentration) and the cells were incubated at 37° C. under a humidified atmosphere of 5% CO2 for 40 h.
All media was carefully aspirated from each culture flask. The cells were washed carefully with 1×DPBS. The cells were then briefly digested with trypsin LE for 5 minutes at 23° C., and immediately resuspended in cell growth media. After resuspension, the cells were centrifuged at 1000 rpm for 3 minutes and the supernatant was discarded. The cells were resuspended in DPBS and once again centrifuged at 1000 rpm for 5 minutes. The supernatant was discarded and the cell pellet was resuspended in serum-free media supplemented with LPS (25 ng/mL final concentration) to enable the distribution of 30K THP-1 cells within 45 μL of media into each well of 384-well PDL-coated plates. The 384-well plates were then incubated at 37° C. under a humidified atmosphere of 5% CO2 for 2 h. Following this period, test compounds were dispensed by Tecan across the desired concentration range with all wells normalized to a final 0.5% DMSO concentration. The plates were then incubated at 37° C. under a humidified atmosphere of 5% CO2 for 1 h. Following this period, 5 μL of the […] was added to each of the appropriate wells and plates were centrifuged at 1000 rpm for 30 seconds. The plates were the immediately reintroduced to the incubator at 37° C. under a humidified atmosphere of 5% CO2 for 2 h. After this time, 35 μL/well of supernatant was collected and transferred into v-bottom plate and centrifuged at 1000 rpm for 1 minute. These supernatant aliquots were analyzed using an IL-Iβ detection kit as described below. If needed, the test samples could be snap frozen and stored at −80° C. until analyzed.
To prepare each ELISA plate, capture antibody (mAb Mt175) was diluted with PBS to a final concentration of 2 μg/mL and then 20 μL of this solution was added to each well of the ELISA plate. Each plate was allowed to incubate overnight at 4° C.

[1] = Homo sapiens, THP-1, Table 4, IL-1β secretion, LPS/nigericin-stimulated THP-1 cells, read-out: IC50
[2] = Homo sapiens, THP-1, IL-1β secretion, PMA-differentiated THP-1 cells, LPS then nigericin stimulation, ELISA read at 450 nm, read-out: Activity

SMILES | IC50 [1] [µM] | IC50 [2] [µM] | IC50 (Table 4, IL-1β secretion, LPS/nigericin-stimulated THP-1 cells, read-out: IC50) [µM]
CC(C)n1cnc(NC(=O)CN2CC3(CC3)c3cc(Br)ccc3C2=O)n1 [Example 421, 2-(6-bromo-1-oxospiro[3H-isoquinoline-4,1′-cyclopropane]-2-yl)-N-(1-propan-2-yl-1,2,4-triazol-3-yl)acetamide] | 2.73 | – | –
O=C(CN1CC2(CC2)c2cc(Br)ccc2C1=O)Nc1ccc2nc[nH]c2c1 [Example 169, N-(3H-benzimidazol-5-yl)-2-(6-bromo-1-oxospiro[3H-isoquinoline-4,1′-cyclopropane]-2-yl)acetamide] | 0.605 | < 10 | –
N#Cc1cnc(NC(=O)CN2CC3(CC3)c3c(ccc(Br)c3F)C2=O)nc1 [Example 105, 2-(6-bromo-5-fluoro-1-oxospiro[3H-isoquinoline-4,1′-cyclopropane]-2-yl)-N-(5-cyanopyrimidin-2-yl)acetamide] | 0.119 | < 10 | –
CC(C)(O)CCNC(=O)CN1CC2(CC2)c2cc(Br)ccc2C1=O [Example 47, 2-(6-bromo-1-oxospiro[3H-isoquinoline-4,1′-cyclopropane]-2-yl)-N-(3-hydroxy-3-methylbutyl)acetamide] | 4.7 | < 10 | –
O=C(CN1CC2(CC2)c2cc(Br)ccc2C1=O)Nc1ncc2c(n1)OCC2 [Example 329, 2-(6-bromo-1-oxospiro[3H-isoquinoline-4,1′-cyclopropane]-2-yl)-N-(5,6-dihydrofuro[2,3-d]pyrimidin-2-yl)acetamide] | 0.93 | – | –
O=C(CN1CC2(CC2)c2cc(Br)ccc2C1=O)Nc1nccc2nccn12 [Example 363, 2-(6-bromo-1-oxospiro[3H-isoquinoline-4,1′-cyclopropane]-2-yl)-N-imidazo[1,2-c]pyrimidin-5-ylacetamide] | 6.58 | – | –
O=C(CN1CC2(CC2)c2cc(Br)ccc2C1=O)Nc1nc2cnccn2n1 [Example 260, 2-(6-bromo-1-oxospiro[3H-isoquinoline-4,1′-cyclopropane]-2-yl)-N-([1,2,4]triazolo[1,5-a]pyrazin-2-yl)acetamide] | 0.205 | < 10 | –
O=C(CN1CC2(CC2)c2cc(Br)ccc2C1=O)N[C@@H]1CCCN(C2CC2)C1 [Example 268, 2-(6-bromo-1-oxospiro[3H-isoquinoline-4,1′-cyclopropane]-2-yl)-N-[(3R)-1-cyclopropylpiperidin-3-yl]acetamide] | 0.192 | < 10 | –
Cn1ncnc1NC(=O)CN1CC2(CC2)c2cc(Br)ccc2C1=O [Example 218, 2-(6-bromo-1-oxospiro[3H-isoquinoline-4,1′-cyclopropane]-2-yl)-N-(2-methyl-1,2,4-triazol-3-yl)acetamide] | 9.18 | < 10 | –
O=C(CN1CC2(CC2)c2cc(Br)ccc2C1=O)Nc1nnc2ccccc2n1 [Example 352, N-(1,2,4-benzotriazin-3-yl)-2-(6-bromo-1-oxospiro[3H-isoquinoline-4,1′-cyclopropane]-2-yl)acetamide] | 6.08 | – | –
O=C(CN1C[C@@]2(C[C@@H]2F)c2c(ccc(Br)c2F)C1=O)Nc1ncc(Cl)cn1 (single isomer, unassigned) [Example 222, 2-[(2′s,4r)-6-bromo-2′,5-difluoro-1-oxospiro[3H-isoquinoline-4,1′-cyclopropane]-2-yl]-N-(5-chloropyrimidin-2-yl)acetamide] | 0.011 | < 10 | –
O=C(CN1CC2(CC2)c2cc(Br)ccc2C1=O)Nc1nc2cccnc2o1 [Example 211, 2-(6-bromo-1-oxo-spiro[3H-isoquinoline-4,1′-cyclopropane]-2-yl)-N-oxazolo[5,4-b]pyridin-2-yl-acetamide] | 1.18 | < 10 | –
O=C(CN1CC2(CC2)c2cc(Br)ccc2C1=O)Nc1ncncn1 [Example 192, 2-(6-bromo-1-oxospiro[3H-isoquinoline-4,1′-cyclopropane]-2-yl)-N-(1,3,5-triazin-2-yl)acetamide] | 0.309 | < 10 | –
O=C(CN1C[C@]2(C[C@H]2F)c2cc(Br)ccc2C1=O)Nc1ncc(F)cn1 [Example 79, 2-[(2′R,4S)-6-bromo-2′-fluoro-1-oxospiro[3H-isoquinoline-4,1′-cyclopropane]-2-yl]-N-(5-fluoropyrimidin-2-yl)acetamide] | 0.015 | < 10 | –
O=C(CN1CC2(CC2)c2cc(Br)ccc2C1=O)Nc1ncncc1F [Example 6] | 0.141 | < 10 | –
O=C(CN1CC2(CC2)c2cc(Br)ccc2C1=O)Nc1ncc2ccccc2n1 [Example 197, 2-(6-bromo-1-oxospiro[3H-isoquinoline-4,1′-cyclopropane]-2-yl)-N-quinazolin-2-ylacetamide] | 1.25 | < 10 | –
O=C(CN1CC2(CC2)c2c(ccc(C3(F)CC3)c2F)C1=O)Nc1ncc(F)cn1 [Example 307, 2-[5-fluoro-6-(1-fluorocyclopropyl)-1-oxospiro[3H-isoquinoline-4,1′-cyclopropane]-2-yl]-N-(5-fluoropyrimidin-2-yl)acetamide] | 0.898 | – | –
O=C(CN1C[C@@]2(C[C@@H]2C(F)(F)F)c2cc(Br)ccc2C1=O)Nc1ncc(F)cn1 [Example 86, 2-[(2′s,4r)-6-bromo-1-oxo-2′-(trifluoromethyl)spiro[3H-isoquinoline-4,1′-cyclopropane]-2-yl]-N-(5-fluoropyrimidin-2-yl)acetamide] | 2.81 | < 10 | –
Cc1cnc(NC(=O)CN2C[C@]3(C[C@H]3F)c3cc(Br)ccc3C2=O)nc1 [Example 274] | 0.023 | < 10 | –
O=C(CN1C[C@@]2(C[C@@H]2Cl)c2cc(Br)ccc2C1=O)Nc1ncc(F)cn1 (single isomer, unassigned) [Example 283, 2-[(2′r,4s)-6-bromo-2′-chloro-1-oxospiro[3H-isoquinoline-4,1′-cyclopropane]-2-yl]-N-(5-fluoropyrimidin-2-yl)acetamide] | – | < 10 | 0.101
CC1(O)CC(NC(=O)CN2C[C@]3(C[C@H]3F)c3cc(Br)ccc3C2=O)C1 (stereo partly drawn) [Example 321, N-(cis-3-hydroxy-3-methylcyclobutyl)-2-[(2′R,4S)-6-bromo-2′-fluoro-1-oxospiro[3H-isoquinoline-4,1′-cyclopropane]-2-yl]acetamide] | 0.009 | – | –
O=C(CN1CC2(CC2)c2cc(Br)ccc2C1=O)Nc1n[nH]c2ccccc12 [Example 166, 2-(6-bromo-1-oxospiro[3H-isoquinoline-4,1′-cyclopropane]-2-yl)-N-(1H-indazol-3-yl)acetamide] | 4.84 | < 10 | –
O=C(CN1CC2(CC2)c2cc(Br)ccc2C1=O)Nc1ncc2c(n1)COCC2 [Example 330, 2-(6-bromo-1-oxospiro[3H-isoquinoline-4,1′-cyclopropane]-2-yl)-N-(6,8-dihydro-5H-pyrano[3,4-d]pyrimidin-2-yl)acetamide] | 1.02 | – | –
O=C(CN1CC2(CC2)c2cc(Br)ccc2C1=O)Nc1cn2ccnc2cn1 [Example 179, 2-(6-bromo-1-oxospiro[3H-isoquinoline-4,1′-cyclopropane]-2-yl)-N-imidazo[1,2-a]pyrazin-6-ylacetamide] | 2.24 | < 10 | –
O=C(CN1CC2(CC2)c2cc(Br)ccc2C1=O)Nc1ncc(C2CCOC2)cn1 (stereo not shown) [Example 258, 2-(6-bromo-1-oxospiro[3H-isoquinoline-4,1′-cyclopropane]-2-yl)-N-[5-(oxolan-3-yl)pyrimidin-2-yl]acetamide] | 0.526 | < 10 | –
